Each sequence was assayed against T1, purified CaM from bovine brain (Bos taurus, UniProt P62157) (assay: Surface plasmon resonance, equilibrium binding of CaM to immobilized INF2 peptides). Settings: SPR, in the presence of Ca2+ (1 mM CaCl2), 25 °C; Fig. 4B-D, Fig. S3F.
T1 construct: Calmodulin from bovine brain; purchased Sigma-Aldrich Cat#208694; host or cells: bovine brain (tissue-purified)
Description: For use in surface plasmon resonance analysis, the peptide corresponding to amino acids 2-19 of human INF2 and similar peptides with replacements in the W11, L14 and L18 residues were synthesized in an automated multiple peptide synthesizer (Multipep, Intavis, Köln, Germany) in the Proteomics Facility of the Centro Nacional de Biotecnología (CSIC, Madrid). The INF2 2–36 peptide was obtained as a bespoke product with the same modifications from pepMic (Suzhou, China). These peptides contained two G residues at its N terminus to separate the INF2 sequence from an additional N-terminal end K residue, which was biotinylated in the ε-amino group. For use in NMR studies, the INF2 2–36 and 2-19 peptides were synthesized to order, without any modification, by CASLO ApS (Denmark). All the peptides were synthesized using the solid-phase synthetic procedures and standard Fmoc [N-(9-fluorenyl)methoxycarbonyl] chemistry, and then underwent reverse-phase HPLC purification.
All surface plasmon resonance experiments were carried out at 25 °C in a Biacore 3000 (Cytiva) robotic biosensor. Analyses were performed using HBSP (10 mM HEPES pH 7.4, 150 mM NaCl, 0.005% surfactant P20) supplemented with 1 mM CaCl2 as running buffer and for the dilution of analytes and ligands. Biotinylated peptides were individually immobilized on a streptavidin-coated sensor chip in flow cells 2, 3 and 4 at a flow rate of 10 µl/min (20–50 RU captured). The empty flow cell 1 was used as a control for non-specific binding and bulk effects. Purified CaM was injected at different concentrations ranging from 13.2 nM to 9.6 µM in duplicate, at a flowrate of 50 µl/min, with an association time of 60 s followed by dissociation for 60 s. After that, the sensor chip was regenerated by injection of 10 mM glycine–HCl, pH 1.7, with a contact time of 12 s. […] Sensorgrams with different concentrations of CaM were overlaid, aligned and analyzed with BIAevaluation Software 4.1, using the double-reference method. […]

| Sequence | affinity / interaction with CaM relative to the intact 2-19 peptide (in words) |
| --- | --- |
| KGGSVKEGAQRKAAAAKEKAG [Peptide W11L14L18A, 2-19 INF2 peptide with the triple W11L14L18A mutation] | undetectable |
| KGGSVKEGAQRKAAALKEKLG [Peptide W11A, 2-19 INF2 peptide with the W11A mutation] | undetectable |
| KGGSVKEGAQRKWAAAKEKAG [L14L18A 2-19 peptide, 2-19 INF2 peptide with the double L14L18A mutation] | reduced affinity |

Source: article PMC9616786, “Structure and function of the N-terminal extension of the formin INF2” (Cellular and Molecular Life Sciences, 2022)
